Measurements taken from patent US8207142B2, “Inhibitor of DNA methylation” (priority 2001, dated 2012).
Where “and” joins values, the source holds several entries; their conditions need not be identical. Equal values may be shown once.

Tests used:
[1] = tested on: DNA methylation of the am^RIP and ψ63 sequences; assay: Southern blot analysis of DNA methylation in N. crassa (Dpn II vs Sau3AI digests); format: cell-based, Neurospora crassa; settings: 12 and 24 μM 5-AC; 0.33 and 3.3 μM TSA; 20, 39, 78, 160 and 310 μM Zebularine
Description: DNA was digested with Dpn II (D) or Sau3AI (S), fractionated by gel electrophoresis, transferred to a membrane and probed for am (FIG. 4A) or ψ63 (FIG. 4B) sequences. Dpn II and Sau3AI both recognize the sequence GATC, but Sau3AI fails to cleave if the C residue is methylated. Thus, differences between S and D lanes are indicative of DNA methylation.
The ramp symbols at the top of the figure represent increasing concentrations of drug. Drug concentrations were 12 and 24 μM 5-AC; 0.33 and 3.3 μM TSA; and 20, 39, 78, 160 and 310 μM Zebularine. The positions of selected size standards (kb) are indicated.
Southern hybridizations were performed on DNA samples (−1 μg) isolated from liquid cultures inoculated with 7×10^4 conidia/ml. DNA was digested with Dpn II (D) or Sau3AI (S), fractionated by gel electrophoresis, transferred to a nylon membrane and probed for am^RIP (FIG. 4A) or ψ63 (FIG. 4B) sequences. The restriction endonucleases Dpn II and-Sau3AI both recognize the sequence GATC, but Sau3AI fails to cleave if the C residue is methylated. Drug concentrations were […] 5-AC, 0.33 and 3.3 μM TSA, and […] Zebularine.
The positions of selected size standards (kb) and the origin (ori) are indicated. […] Differences between S and D lanes are indicative of DNA methylation.

10T1/2 cells [2] = assay: Induction of a myogenic phenotype (myotube formation) in 10T1/2 cells; format: cell-based, mouse; set-up: key to Muscle Formation: + representing minimal muscle formation; scored for muscle cells 9-10 days later as + to +++; +++ representing maximal muscle formation
Description: Cells were plated (3×10^5 cells/100-mm dish) and treated 24 hours later with the indicated concentrations of compounds. The medium was either changed 24 hours or 48 hours after drug treatment. Myotube formation was assayed in 10T1/2 cells as previously described (Constantinides et al., Nature 267:364-366, 1977). […] The ability of Zebularine to cause 10T1/2 cells to undergo the myogenic switch was therefore tested (FIG. 7).

p3 locus = assay: Ms-SNuPE quantitation of DNA methylation in 10T1/2 cells; format: cell-based, mouse; settings: 0.3 μM, 24 hours, control 86
Description: (§1) The average methylation at defined CpG sites was quantitated using a Ms-SNuPE assay, as described by Gonzalgo and Jones (Nucleic Acids Res. 25:2529-2531, 1997) and U.S. Pat. No. 6,251,594. Briefly, genomic DNA (˜4 μg) was digested overnight with 4 units of EcoRI (Boehringer Mannheim) (p16 promoter/exon 1 and p16 exon 2; FIG. 9A) or with 4 units of RsaI (Boehringer Mannheim) (P3; FIG. 9B) to cut outside the region of interest.
(§2) After standard treatment with sodium bisulfite, a PCR product of the region was generated as template for top-strand methylation analysis. The sequences of the primers used for bisulfite-treated DNA amplification were as follows: […]
P3: 95° C. for 2 minutes, 95° C. for 1 minute, 50° C. for 50 seconds, and 72° C. for 1 minute for 40 cycles, with a final extension at 72° C. for 10 minutes.
(§3) Duplicates of 4 μl of template were then added to 6 μl of mixture consisting of 1× PCR buffer, 1 μM final concentration primers, 1 μCi of [^32P]dCTP or dTTP, and 1 unit 1:1 Taq/TaqStart antibody (Clontech, Palo Alto, Calif.). Single nucleotide extension involved incubation at 95° C. for 1 minute, then 50° C. for 2 minutes, and finally 72° C. for 1 minute (p16 promoter/exon1 and P16 exon 2) and 95° C. for 1 minute, then 46° C. for 30 seconds, and finally 72° C. for 20 seconds (P3). The sequences for SNuPE primers were as follows: […]
(§4) After briefly spinning down the tubes, 4 μl of stop solution were added to the 10-μl reaction volume, and the samples were boiled for 5 minutes at 95° C. before loading 1.5 μl onto a 15% denaturing polyacrylamide gel (7 M urea). The gel was run at 90 W for 1.5 hours and then dried at 80° C. for 40 minutes. The gel was exposed to a phosphorimaging cassette for quantitation of the ratio of [^32P]dCTP versus [^32P]dTTP incorporation, and the quantitation of the percent methylation was averaged from three separate CpG sites. The gel was then exposed to BioMax MR film (Kodak) to record experimental results.

10T1/2 cells [3] = assay: Colony-formation assay (plating efficiency) in 10T1/2 cells; format: cell-based, mouse
Description: (§5) The percentage cell survival was assessed by dividing the mean colony number on the treated plates divided by the mean colony number on the untreated plates ×100.

[4] = tested on: p16 gene expression in T24 cells; assay: RT-PCR analysis of p16 expression in T24 cells; format: cell-based, human; settings: 3 μM
Description: The T24 cell line was obtained from the American Type Culture Collection (Rockville, Md.) and cultured in DMEM supplemented with 10% heat-inactivated fetal calf serum and 100 U/ml penicillin-streptomycin. Cultures were grown in a humidified incubator at 37° C. in an atmosphere of 5% CO2 in air.
Cells were plated (3×10^5 cells/100-mm dish) and treated 24 hours later with the indicated concentrations of compounds. The medium was either changed 24 hours or 48 hours after drug treatment.
DNA and RNA were isolated three days after treatment using the NucleoBond RNA/DNA Midi Kit (Clontech Laboratories, Inc., Palo Alto, Calif.).
Total RNA (˜10 μg) was reverse-transcribed using the following reagents: 100 units RNAsin (Promega Corp., Madison, Wis.), 0.1 M DTT (Life Technologies, Inc.), 1000 units of MMLV-RT (Life Technologies, Inc.), 1 mM deoxynucleotide triphosphates (Boehringer Mannheim, Germany), 75 μg/ml BSA, 1× MMLV-RT buffer (Life Technologies, Inc.), and 0.025 ODU Random Hexamers (Amersham-Pharmacia Biotech, Piscataway, N.J.). The reaction mixture was incubated for 10 minutes at 25° C., 45 minutes at 42° C., 3 minutes at 90° C., and chilled for 5 minutes at 4° C., during which time 1.25 μl of MMLV-RT (200 U/μl) were added and the sample then incubated for 45 minutes at 42° C., 10 minutes at 75° C., and stored at −20° C.
cDNA was amplified with primers specific for either p16 or GAPDH. Briefly, PCR reactions were performed in 25-μl volumes at 94° C. for 3 minutes, 28 cycles at 94° C. for 1 minute, 56° C. for 30 seconds, 72° C. for 40 seconds, and a final extension step at 72° C. for 5 min (p16 amplification), and 94° C. for 1 minute, 19 cycles at 94° C. for 1 minute, 58° C. for 30 seconds, 72° C. for 45 seconds, and a final extension step at 72° C. for 2 minutes (GAPDH amplification).
PCR amplifications were performed with cDNA template concentration equivalent to 100 ng of RNA in 10% DMSO. All reactions were analyzed in the linear range of amplification. PCR products were resolved on 2% agarose gels and subsequently transferred to a nylon membrane (Zetaprobe; Bio-Rad, Richmond, Calif.) under alkaline conditions. All blots were hybridized with a γ-^32P-labeled internal oligonucleotide probe, using protocols previously described (Xiong and Laird, Nuc. Acids Res. 25:2532-2534, 1997).
Since 5-Aza-CdR has been shown previously to induce p16 expression in a dose-dependent manner (Bender et al., Cancer Res. 58:95-101, 1998), the two ribonucleoside analogs 5-Aza-CR and Zeb were examined to determine their abilities to induce p16 expression (FIG. 8). Because Zeb is stable in aqueous solution, the effect of prolonging Zeb treatment on p16 expression was tested by treating these cells with different concentrations of Zeb for either 24 hours or 48 hours. RT-PCR was then performed to determine whether p16 gene was induced by drug treatment.

p16 promoter = assay: Ms-SNuPE quantitation of DNA methylation in T24 cells, p16 promoter; format: cell-based, human; settings: 3 μM, 24 hrs; control 96
Description: as §1, §2
p16 promoter/exon 1: 94° C. for 3 minutes, 94° C. for 45 seconds, 67° C. for 45 seconds, and 72° C. for 45 seconds for 40 cycles, with a final extension step at 72° C. for 10 minutes.
as §3, §4

p16 exon 2 = assay: Ms-SNuPE quantitation of DNA methylation in T24 cells, p16 exon 2; format: cell-based, human; settings: 3 μM, 24 hrs
Description: as §1, §2
p16 exon 2: 94° C. for 3 minutes, 94° C. for 1 minute, 62° C. for 45 seconds, and 72° C. for 45 seconds for 40 cycles, with a final extension step at 72° C. for 10 minutes.
as §3, §4

T24 cells = assay: Colony-formation assay (decrease in plating efficiency) in T24 cells; format: cell-based, human; settings: 3 μM, 24 hrs
Description: as §5

Structure (SMILES) | effect on DNA methylation (Southern blot) [1] | Muscle Formation (10T1/2 cells [2]; 0.3 μM, 24 hours treatment, scored 9-10 days later) | muscle formation (micrographs, in words) (10T1/2 cells [2]; 10T1/2 cells, approximately 9-10 days after drug treatment) | % Methylation (p3 locus) | decrease in plating deficiency (cytotoxicity) (10T1/2 cells [3]; 0.3 μM, 10T1/2 cells) | Ave. Plating Efficiency (%) (10T1/2 cells [3]; 0.3 μM, 250 cells, stained after 14-16 days, control 22) | cell death observed (10T1/2 cells [3]; 10T1/2 cells, 0.3 μM 5-Aza-CdR, 3 μM 5-Aza-CR, 30 μM Zebularine) | p16 expression (RT-PCR) [4] | p16 Promoter Methylation (%) (p16 promoter) | Relative p16 Exon 2 De-methylation (%) (p16 exon 2) | p16 Exon 2 Methylation (%) (p16 exon 2; control 96) | Toxicity (%) (decrease in plating efficiency) (T24 cells)
CC(/C=C/C(=O)NO)=C\[C@@H](C)C(=O)c1ccc(N(C)C)cc1 [TSA, trichostatin A] | selective inhibition of methylation | – | – | – | – | – | – | – | – | – | – | –
Nc1ncn([C@H]2C[C@H](O)[C@@H](CO)O2)c(=O)n1 [5-Aza-CdR, 5-aza-2′-deoxycytidine] | – | +++ | formed multinucleated myotubes | 54% and 54 +/− 5% | 74% | 5% | appreciable cell death | robust expression of p16 | 52% and 52 +/− 5% | 47 +/− 1% | 51 +/− 1% | 75%
